{"source": "patent US7358074B2", "about": "“Human phosphatase RET31, and variants thereof” (Bristol-Myers Squibb Company, priority 2000, dated 2008)", "key": {"[1]": {"target": "T1, M1 to T302 C-terminal RET31 (Homo sapiens, UniProt Q9BY84, I6V/M5I/N284S)", "T1 construct": "made in house", "T1 sequence (Q9BY84 1-302 M5I/I6V/N284S)": "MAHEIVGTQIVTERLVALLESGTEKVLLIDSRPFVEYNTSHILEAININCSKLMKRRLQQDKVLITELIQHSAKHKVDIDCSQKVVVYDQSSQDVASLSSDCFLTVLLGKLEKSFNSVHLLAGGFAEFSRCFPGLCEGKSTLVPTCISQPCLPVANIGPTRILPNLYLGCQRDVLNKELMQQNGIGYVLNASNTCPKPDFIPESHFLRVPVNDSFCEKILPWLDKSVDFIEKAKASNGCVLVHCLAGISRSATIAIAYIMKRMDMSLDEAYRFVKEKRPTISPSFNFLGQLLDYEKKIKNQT", "assay": "phosphatase activity assay, hydrolysis of para-nitrophenylphosphate (pNPP)", "format": "biochemical", "conditions": "2 mM orthovanadate; pNPP substrate; FIG. 36", "experimental": "(§1) The phosphatase activity for the full-length RET31 and the M1 to T302 C-terminal RET31 GST fusion proteins were measured by assaying the ability of the proteins to hydrolyze para-nitrophenylphosphate, a compound known to be a substrate for phosphatases, as described in Krejsa, C. et al., J. Biol. Chem. Vol. 272, p. 11541-11549, 1997 (which is hereby incorporated in its entirety herein). The proteins are incubated with para-nitrophenylphosphate in a solution containing 10 mM imidazole, pH 7.0, 1 mM EDTA, 2 mM dithiothreitol, and 5 μg/ml BSA for 2 hours with and without sodium orthovanadate (Fisher) prepared in distilled water. The progress of the phosphatase reaction in a 96-well format was monitored by the OD405 nm on a plate reader (Molecular Devices) at 10-minute intervals in the kinetic mode.\n(§2) The RET31-GST full length (FL), M1 to T302 C-terminal RET31-GST (trunc), or GST alone were purified and assayed for cleavage of para-nitrophenylphosphate (pNPP). The bars represent the average of triplicate determinations, and the standard deviations are as shown. Each protein preparation was assayed in the absence and presence of 2 mM of the phosphatase inhibitor orthovanadate. In addition, the full length and truncated protein phosphatase activity was blocked by the phosphatase inhibitor vanadate, as shown."}, "[2]": {"target": "T2, full-length RET31 (Homo sapiens, UniProt Q9BY84, C584R/N284S/T302A)", "T2 construct": "made in house", "T2 sequence (Q9BY84 with tags, fused parts or gaps N284S/T302A/C584R)": "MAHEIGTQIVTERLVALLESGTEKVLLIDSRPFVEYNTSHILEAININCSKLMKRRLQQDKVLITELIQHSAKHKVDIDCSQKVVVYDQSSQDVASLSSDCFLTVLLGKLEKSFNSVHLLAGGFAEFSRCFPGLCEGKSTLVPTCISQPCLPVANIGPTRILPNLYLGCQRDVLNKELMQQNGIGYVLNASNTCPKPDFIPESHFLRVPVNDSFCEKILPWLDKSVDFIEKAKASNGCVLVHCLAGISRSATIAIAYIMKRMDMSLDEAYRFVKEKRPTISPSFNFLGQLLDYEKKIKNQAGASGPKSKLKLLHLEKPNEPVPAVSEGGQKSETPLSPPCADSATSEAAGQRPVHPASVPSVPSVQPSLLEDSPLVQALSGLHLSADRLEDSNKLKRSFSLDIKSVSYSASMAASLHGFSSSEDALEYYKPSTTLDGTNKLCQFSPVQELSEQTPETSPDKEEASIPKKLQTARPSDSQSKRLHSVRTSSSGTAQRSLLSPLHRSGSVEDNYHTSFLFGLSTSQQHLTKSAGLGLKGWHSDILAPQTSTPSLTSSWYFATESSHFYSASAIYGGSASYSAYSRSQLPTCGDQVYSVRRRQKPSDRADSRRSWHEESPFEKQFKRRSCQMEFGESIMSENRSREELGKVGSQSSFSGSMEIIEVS", "assay": "phosphatase activity assay, hydrolysis of para-nitrophenylphosphate (pNPP)", "format": "biochemical", "conditions": "2 mM orthovanadate; pNPP substrate; FIG. 36", "experimental": "as §1, §2"}, "[3]": {"system": "RET31", "assay": "para-nitrophenylphosphate (pNPP) phosphatase activity assay of purified RET31-GST fusion proteins", "format": "biochemical, human", "experimental": "The bars represent the average of triplicate determinations, and the standard deviations are as shown. Each protein preparation was assayed in the absence and presence of 2 mM orthovanadate (”-van”). […] The phosphatase assays were performed as described in Example 57 herein.\nIn addition to assaying the full-length RET31 polypeptide (SEQ ID NO:109), a C-terminal deletion of RET31 was also assayed corresponding to amino acids M1 to T302 of SEQ ID NO:109)."}, "[4]": {"system": "human lung fibroblasts", "assay": "human lung fibroblast proliferation assay, Alamar Blue", "format": "cell-based", "conditions": "3 days in basal medium, expected (should show)", "experimental": "Human lung fibroblasts are obtained from Clonetics (San Diego, Calif.) and maintained in growth media from Clonetics. Dermal microvascular endothelial cells are obtained from Cell Applications (San Diego, Calif.). For proliferation assays, the human lung fibroblasts and dermal microvascular endothelial cells can be cultured at 5,000 cells/well in a 96-well plate for one day in growth medium. The cells are then incubated for one day in 0.1% BSA basal medium. After replacing the medium with fresh 0.1% BSA medium, the cells are incubated with the test proteins for 3 days. Alamar Blue (Alamar Biosciences, Sacramento, Calif.) is added to each well to a final concentration of 10%. The cells are incubated for 4 hr. Cell viability is measured by reading in a CytoFluor fluorescence reader. For the PGE2 assays, the human lung fibroblasts are cultured at 5,000 cells/well in a 96-well plate for one day. […]"}}, "note": "Entries after “also recorded” stand apart in the source; their conditions may differ.", "data": [{"molecule": "[Na+].[Na+].[Na+].[O]=[V]([O-])([O-])[O-]", "note": "[orthovanadate, sodium orthovanadate]", "values": [{"measurement": "effect of phosphatase inhibitor on phosphatase activity", "setting": "[1]", "result": "blocked"}, {"measurement": "effect of phosphatase inhibitor on phosphatase activity", "setting": "[2]", "result": "blocked"}]}, {"molecule": "[O]=[V]([O-])([O-])[O-]", "note": "[vanadate]", "values": [{"measurement": "inhibition of RET31 phosphatase activity", "setting": "[3]; 2 mM orthovanadate, full-length and M1 to T302 RET31-GST", "result": "blocked; also recorded: specifically inhibited"}]}, {"molecule": "FGF-2: FGF-2 (basic FGF), comparison growth factor", "values": [{"measurement": "concentration showing stimulation of growth of fibroblasts", "setting": "[4]", "result": "10 to 2500", "unit": "ng/mL"}]}, {"molecule": "M1 to T302 RET31 C-terminal deletion mutant: C-terminal deletion of RET31 corresponding to amino acids M1 to T302 of SEQ ID NO:109, GST fusion (protein, listed as Homo sapiens, GST fusion partner lacks entry) MAHEMIGTQIVTERLVALLESGTEKVLLIDSRPFVEYNTSHILEAININCSKLMKRRLQQDKVLITELIQHSAKHKVDIDCSQKVVVYDQSSQDVASLSSDCFLTVLLGKLEKSFNSVHLLAGGFAEFSRCFPGLCEGKSTLVPTCISQPCLPVANIGPTRILPNLYLGCQRDVLNKELIQQNGIGYVLNASYTCPKPDFIPESHFLRVPVNDSFCEKILPWLDKSVDFIEKAKASNGCVLVHCLAGISRSATIAIAYIMKRMDMSLDEAYRFVKEKRPTISPNFNFLGQLLDYEKKIKNQT", "values": [{"measurement": "increase in phosphatase activity relative to the full-length RET31 polypeptide", "setting": "[3]; pNPP substrate, GST fusion proteins", "result": "five fold increase"}, {"measurement": "phosphatase activity via cleavage of the NPP substrate", "setting": "[3]; purified GST fusion protein, pNPP substrate, compared to purified GST alone", "result": "demonstrated phosphatase activity"}]}]}
